Experimental data published in patent US20230339878A1, “SLC26A3 INHIBITORS AND USE THEREOF” (THE REGENTS OF THE UNIVERSITY OF CALIFORNIA, priority 2018, published 2023).
“Also recorded” adds a separate entry of the source.

Key:
(human) SLC26A3 = molecular target: T1, (human) SLC26A3 (Homo sapiens, UniProt P40879); test: SLC26A3-mediated Cl-/I- exchange in HEK cells expressing SLC26A3 and YFP; type: cell-based
T1 construct: host or cells: HEK293 cells transduced with lentivirus, then transfected with YFP
T1 sequence (P40879 1-764): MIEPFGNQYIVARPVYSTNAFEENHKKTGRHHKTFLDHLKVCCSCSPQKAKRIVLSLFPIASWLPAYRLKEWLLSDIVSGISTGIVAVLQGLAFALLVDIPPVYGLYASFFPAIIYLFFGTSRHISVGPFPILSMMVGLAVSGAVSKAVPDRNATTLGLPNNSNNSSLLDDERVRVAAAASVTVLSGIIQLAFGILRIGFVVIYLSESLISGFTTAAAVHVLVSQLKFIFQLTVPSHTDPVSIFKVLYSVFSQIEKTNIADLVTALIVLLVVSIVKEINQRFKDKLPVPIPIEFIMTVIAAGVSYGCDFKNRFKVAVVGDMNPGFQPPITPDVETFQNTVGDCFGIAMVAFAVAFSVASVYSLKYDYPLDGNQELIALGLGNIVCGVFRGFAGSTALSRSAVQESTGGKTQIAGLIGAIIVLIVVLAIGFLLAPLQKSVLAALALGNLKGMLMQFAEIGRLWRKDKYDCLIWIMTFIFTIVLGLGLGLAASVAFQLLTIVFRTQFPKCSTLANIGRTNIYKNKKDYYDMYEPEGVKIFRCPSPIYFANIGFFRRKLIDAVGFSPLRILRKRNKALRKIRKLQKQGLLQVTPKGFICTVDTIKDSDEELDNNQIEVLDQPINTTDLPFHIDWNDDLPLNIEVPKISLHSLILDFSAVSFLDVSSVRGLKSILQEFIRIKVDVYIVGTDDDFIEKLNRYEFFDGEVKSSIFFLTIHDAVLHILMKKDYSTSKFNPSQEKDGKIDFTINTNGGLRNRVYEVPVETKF
Protocol: Inhibition of (human) SLC26A3 by Compound A1 was also tested, using a HEK cell model expressing SLC26A3 and YFP.
To generate a cell line enriched for expression of SLC26A3, HEK293 cells were transduced with lentiviral particles generated with the pLVX-IRES-mCherry-SLC26A3 transfer vector and then transfected to express YFP.
(§1) HEK293 cells transfected with pIRES-YFP-slc26a9 were plated in 96-well black-walled, clear-bottom tissue culture plates (Corning Life Sciences, Tewksbury, MA) after coating with FNC Coating Mix (AthenaES, Baltimore, MD). […] Assays of slc26a9-mediated anion exchange were done by initially recording YFP fluorescence prior to addition of 100 µL of NaI-substituted PBS to test wells, with the initial rate of Cl^-/I^- exchange deduced from fluorescence intensity by single exponential regression. […] To assay SLC26A3 function, HEK293 cells transduced with lentiviral particles generated from the pLVX-IRES-mCherry-SLC26A3 transfer vector were transfected to express YFP for Cl^-/I^- exchange assays as described above; red fluorescence images were acquired to confirm SLC26A3 expression in cells. […]

[1] = test system: ENaC, CFTR or CaCC activity in human bronchial epithelial (HBE) cells; test: Short-circuit current in well-differentiated HBE cells; type: cell-based; conditions: 10 µM, pre-treatment 20 min; amiloride, forskolin, CFTRinh-172, ATP additions
Description: To investigate Compound A1 selectivity, transport assays were done on a panel of SLC26-family homologs, and other relevant epithelial ion transporters and channels. […] In separate studies, to investigate possible action of Compound A1 on multiple ion transporters and channels in a human epithelium, human bronchial epithelial (HBE) cells were studied by short-circuit current, with successive additions of amiloride (to block the epithelial sodium channel ENaC), forskolin, CFTRinh-172 (to block CFTR), and ATP (to activate the Ca^2+-activated chloride channel, CaCC) (FIG. 5C).
as §1

[2] = test system: mouse mid-jejunal closed loops; test: Closed mid-jejunal loop fluid absorption in mice; type: in vivo; conditions: 10 µM intraluminal, 30 min
Protocol: Female CD1 mice (age 8-10 weeks) were given free access to Pedialyte (per liter: Na^+ 45 mEq, Cl^- 35 mEq, K^+ 20 mEq, dextrose 25 g; Abbott, Abbot Park, IL) but not solid food for 48 h before experiments. Mice were treated with 500 µL mineral oil once a day rectally (last dose 12 h before surgeries) during this period to evacuate the colon. Closed intestinal loops were isolated as described. Mice were anesthetized with isoflurane and body temperature was maintained during surgery at 36-38° C. using a heating pad. A small abdominal incision was made to expose the distal colon, and one closed distal colonic loop (length 1.5-2 cm) was isolated with sutures in each mouse. Loops were injected with 100 µL phosphate-buffered saline (PBS, pH: 7.4, in mM: 137 NaCl, 2.7 KCl, 8 Na2HPO4, 1.8 KH2PO4, 1 CaCl2, 0.5 MgCl2) without and with 10 µM Compound A1 and/or 10 µM tenapanor (MedChemExpress, Monmouth Junction, NJ). The abdominal incision was closed with sutures, and mice were allowed to recover from anesthesia. Colonic loops were removed at 0 and 60 min (in separate mice) and loop length and weight were measured to quantify fluid absorption. Luminal fluid was emptied with a syringe and pH was measured immediately using AB15 pH Meter (Thermo Fisher Scientific, South San Francisco, CA). In separate studies, mid-jejunal loops (length 2-3 cm, 3-4 loops per mouse) were isolated as described above, injected with 100 µL PBS without or with 10 µM Compound A1 and/or 10 µM tenapanor, and excised at 0 and 30 min to measure loop length and weight.

Cc1c(CC(=O)O)c(=O)oc2c(C)c(OCc3cccc(Br)c3)ccc12 [Compound A1]
IC50 ((human) SLC26A3; HEK cells): ~250 nM
extent of inhibition of SLC26A3-mediated Cl-/I- exchange ((human) SLC26A3; higher concentrations): complete inhibition
effect on short-circuit current responses [1]: did not alter short-circuit current responses; also recorded: differences not significant
loop weight/length ratio (fluid absorption), mid-jejunal loops [2]: did not produce significant changes; also recorded: not in jejunal loops
luminal fluid pH, mid-jejunal loops [2]: did not alter acidification
